In patent US20120245137A1 (Zalicus Pharmaceuticals Ltd., priority 2009, published 2012) one finds IC50 data, which are given here for 24 molecules.

Common to all, as to type: cell-based
Experiment [1] concerns the target human α1G T-type channels (Homo sapiens, UniProt O43497). The experiment can be described thus: T-type calcium channel block, whole cell patch clamp, α1G. The settings on record: HEK cells stably expressing human α1G; mainly non-inactivated protocol; values above 10,000 nM represented as 10000. Put shortly:
(§1)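 Read-out: current block in whole-cell patch clamp of HEK 293 cells stably expressing human α1G or α1H subunits. Compounds were perfused locally in external solution (0.1-0.01% DMSO) under resting and inactivating voltage protocols.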
(Patch clamp records ionic current or voltage across a cell membrane.)

For experiment [2], the target named is human α1H T-type channels (Homo sapiens, UniProt O95180). The experiment can be described thus: T-type calcium channel block, whole cell patch clamp, α1H. The settings on record: HEK cells stably expressing human α1H; mainly non-inactivated protocol; values above 10,000 nM represented as 10000. In a few lines:
as §1

For experiment [3], the target named is N-type calcium channel subunits (α1B, α2δ, and β3a) (Homo sapiens, UniProt Q00975). The experiment can be described thus: Block of Cav2.2 channel, whole cell voltage clamp, manual and PatchXpress. Particulars: Table 5; table follows Assay Example 3 (whole cell voltage clamp / PatchXpress); assay not given. Put shortly: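 Percent block taken as current amplitude ratio with versus without compound, applied in rising doses; IC50 fitted where one cell received multiple doses. Protocol: 50 ms pulses to +20 mV at 0.067 Hz from […] or −90 mV holding; P/n leak subtraction, no junction-potential correction; manual and PatchXpress recordings.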

A value given as a limit tells only on which side of the number the result lay.

Chain of N-type calcium channel subunits (α1B, α2δ, and β3a) (Q00975 whole entry): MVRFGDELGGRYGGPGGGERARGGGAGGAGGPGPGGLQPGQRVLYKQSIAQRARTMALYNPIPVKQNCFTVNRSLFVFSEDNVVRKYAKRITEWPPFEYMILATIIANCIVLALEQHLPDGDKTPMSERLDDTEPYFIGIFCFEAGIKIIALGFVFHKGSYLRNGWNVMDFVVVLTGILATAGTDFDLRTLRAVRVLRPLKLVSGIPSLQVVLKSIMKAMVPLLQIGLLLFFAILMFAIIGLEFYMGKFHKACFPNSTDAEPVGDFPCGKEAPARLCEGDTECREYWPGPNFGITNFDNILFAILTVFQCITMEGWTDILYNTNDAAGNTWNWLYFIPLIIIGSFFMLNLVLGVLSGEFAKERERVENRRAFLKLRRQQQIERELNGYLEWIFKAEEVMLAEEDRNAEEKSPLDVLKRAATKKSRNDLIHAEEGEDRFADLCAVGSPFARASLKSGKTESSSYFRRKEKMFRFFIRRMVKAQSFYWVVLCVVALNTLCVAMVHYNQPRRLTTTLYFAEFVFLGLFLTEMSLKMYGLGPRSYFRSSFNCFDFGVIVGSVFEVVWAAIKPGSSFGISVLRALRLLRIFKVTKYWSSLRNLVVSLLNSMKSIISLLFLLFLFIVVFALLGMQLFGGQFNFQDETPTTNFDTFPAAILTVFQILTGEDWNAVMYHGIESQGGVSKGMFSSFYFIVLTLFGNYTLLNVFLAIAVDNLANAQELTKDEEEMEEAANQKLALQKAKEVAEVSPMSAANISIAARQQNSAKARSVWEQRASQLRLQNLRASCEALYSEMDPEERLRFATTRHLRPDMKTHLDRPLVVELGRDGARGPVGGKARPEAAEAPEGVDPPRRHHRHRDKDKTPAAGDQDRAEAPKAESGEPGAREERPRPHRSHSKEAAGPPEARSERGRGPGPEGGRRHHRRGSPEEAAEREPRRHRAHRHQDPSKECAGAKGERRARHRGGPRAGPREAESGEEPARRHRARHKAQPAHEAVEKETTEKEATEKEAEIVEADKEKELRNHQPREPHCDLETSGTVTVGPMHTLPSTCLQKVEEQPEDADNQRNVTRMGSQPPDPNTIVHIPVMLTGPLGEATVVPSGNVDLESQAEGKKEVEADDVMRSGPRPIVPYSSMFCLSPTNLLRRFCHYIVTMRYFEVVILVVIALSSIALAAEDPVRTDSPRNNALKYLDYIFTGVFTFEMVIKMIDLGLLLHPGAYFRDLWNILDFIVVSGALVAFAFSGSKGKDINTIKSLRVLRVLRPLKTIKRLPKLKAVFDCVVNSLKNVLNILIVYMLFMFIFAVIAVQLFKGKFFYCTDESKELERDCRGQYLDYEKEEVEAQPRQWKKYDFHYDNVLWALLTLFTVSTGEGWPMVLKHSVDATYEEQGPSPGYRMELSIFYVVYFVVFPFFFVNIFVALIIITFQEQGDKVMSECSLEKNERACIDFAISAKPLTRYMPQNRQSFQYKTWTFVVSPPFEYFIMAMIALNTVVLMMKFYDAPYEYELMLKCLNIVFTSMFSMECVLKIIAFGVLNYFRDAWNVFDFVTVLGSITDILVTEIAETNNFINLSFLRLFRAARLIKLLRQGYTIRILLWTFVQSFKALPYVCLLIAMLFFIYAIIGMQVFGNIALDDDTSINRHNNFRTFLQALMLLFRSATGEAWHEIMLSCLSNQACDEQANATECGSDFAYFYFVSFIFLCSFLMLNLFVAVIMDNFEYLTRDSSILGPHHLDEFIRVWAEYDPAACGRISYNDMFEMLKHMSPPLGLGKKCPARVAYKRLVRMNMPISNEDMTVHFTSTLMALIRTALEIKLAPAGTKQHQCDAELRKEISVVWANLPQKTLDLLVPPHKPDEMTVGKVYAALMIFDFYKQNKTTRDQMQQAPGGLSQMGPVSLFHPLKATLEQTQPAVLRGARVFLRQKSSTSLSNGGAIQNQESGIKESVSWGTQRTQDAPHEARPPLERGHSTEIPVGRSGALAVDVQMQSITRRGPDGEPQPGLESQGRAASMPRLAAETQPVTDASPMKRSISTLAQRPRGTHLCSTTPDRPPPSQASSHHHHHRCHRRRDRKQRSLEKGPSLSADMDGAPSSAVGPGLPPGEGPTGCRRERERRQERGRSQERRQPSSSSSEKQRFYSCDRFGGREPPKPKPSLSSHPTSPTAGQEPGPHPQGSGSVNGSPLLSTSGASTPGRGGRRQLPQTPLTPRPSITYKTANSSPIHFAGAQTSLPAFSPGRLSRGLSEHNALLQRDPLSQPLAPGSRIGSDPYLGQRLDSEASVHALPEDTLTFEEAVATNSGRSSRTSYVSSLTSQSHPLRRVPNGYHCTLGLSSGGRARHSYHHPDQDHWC
Chain of N-type calcium channel subunits (α1B, α2δ, and β3a) (P54289 25-1103 partner): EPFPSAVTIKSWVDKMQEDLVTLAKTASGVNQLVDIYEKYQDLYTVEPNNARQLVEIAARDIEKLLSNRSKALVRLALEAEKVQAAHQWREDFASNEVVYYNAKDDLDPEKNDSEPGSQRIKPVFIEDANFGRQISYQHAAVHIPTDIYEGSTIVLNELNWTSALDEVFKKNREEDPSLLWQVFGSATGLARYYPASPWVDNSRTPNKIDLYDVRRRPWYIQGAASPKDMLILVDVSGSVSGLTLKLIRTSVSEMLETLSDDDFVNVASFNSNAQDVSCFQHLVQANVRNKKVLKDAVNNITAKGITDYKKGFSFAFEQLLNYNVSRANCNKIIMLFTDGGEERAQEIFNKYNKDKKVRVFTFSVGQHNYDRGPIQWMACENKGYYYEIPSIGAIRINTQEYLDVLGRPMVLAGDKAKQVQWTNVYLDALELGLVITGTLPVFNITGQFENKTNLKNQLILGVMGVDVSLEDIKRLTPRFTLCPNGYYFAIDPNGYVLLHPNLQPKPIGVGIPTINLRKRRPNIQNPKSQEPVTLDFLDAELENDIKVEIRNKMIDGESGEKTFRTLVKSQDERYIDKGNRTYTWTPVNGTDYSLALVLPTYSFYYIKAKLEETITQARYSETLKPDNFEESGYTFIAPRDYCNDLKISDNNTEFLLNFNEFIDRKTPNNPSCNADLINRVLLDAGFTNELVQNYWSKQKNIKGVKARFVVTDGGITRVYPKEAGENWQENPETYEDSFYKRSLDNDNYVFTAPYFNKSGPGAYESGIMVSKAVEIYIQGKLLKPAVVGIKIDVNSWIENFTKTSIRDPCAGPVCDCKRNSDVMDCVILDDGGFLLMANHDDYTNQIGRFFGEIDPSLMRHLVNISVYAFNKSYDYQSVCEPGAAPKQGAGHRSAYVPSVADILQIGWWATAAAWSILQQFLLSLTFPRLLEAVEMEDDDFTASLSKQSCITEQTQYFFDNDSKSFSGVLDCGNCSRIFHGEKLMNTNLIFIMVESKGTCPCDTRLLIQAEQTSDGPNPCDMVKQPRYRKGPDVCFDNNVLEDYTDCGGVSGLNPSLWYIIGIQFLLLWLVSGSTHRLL
Chain of N-type calcium channel subunits (α1B, α2δ, and β3a) (P54284 whole entry partner): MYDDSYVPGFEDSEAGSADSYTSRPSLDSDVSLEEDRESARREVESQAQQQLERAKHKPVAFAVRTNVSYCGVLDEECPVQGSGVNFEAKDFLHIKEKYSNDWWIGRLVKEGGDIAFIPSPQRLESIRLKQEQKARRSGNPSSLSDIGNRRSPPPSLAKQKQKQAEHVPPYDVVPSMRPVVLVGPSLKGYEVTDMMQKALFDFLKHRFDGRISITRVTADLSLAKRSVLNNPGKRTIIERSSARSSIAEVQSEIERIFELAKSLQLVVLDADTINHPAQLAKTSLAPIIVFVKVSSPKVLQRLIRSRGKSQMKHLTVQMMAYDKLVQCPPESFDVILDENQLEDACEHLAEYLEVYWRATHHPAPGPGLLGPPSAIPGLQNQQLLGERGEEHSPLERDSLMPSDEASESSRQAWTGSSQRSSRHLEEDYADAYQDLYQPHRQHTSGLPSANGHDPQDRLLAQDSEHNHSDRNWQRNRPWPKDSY

On to `COc1cc(C(=O)NCC2(C)CCC(S(=O)(=O)c3cccc(C(F)(F)F)c3)CC2)cc(Cl)n1` (stereo not drawn) [Compound 210, 2-chloro-6-methoxy-N-((1-methyl-4-(3-(trifluoromethyl)phenylsulfonyl)cyclohexyl)methyl)isonicotinamide], for which the figures for the IC50 in experiment [1], in experiment [2] and in experiment [3] were 4.95 µM, 4.14 µM and 380 nM, respectively.

Turning to `O=C(NC[C@H]1CC[C@@H](S(=O)(=O)c2cccc(C(F)(F)F)c2)CC1)c1cc(F)cc(Cl)c1` [Compound 29, 3-chloro-5-fluoro-N-(((1S,4S)-4-(3-(trifluoromethyl)phenylsulfonyl)cyclohexyl)methyl)benzamide], the values for the IC50 in experiment [1], in experiment [2] and in experiment [3] were 0.26 µM, 0.43 µM and 610 nM, respectively.

Consider `Cn1nc(C(F)(F)F)cc1C(=O)N[C@H]1CC[C@H](CS(=O)(=O)c2cccc(C(F)(F)F)c2)CC1` [Compound 102, 1-methyl-3-(trifluoromethyl)-N-((1R,4R)-4-((3-(trifluoromethyl)phenylsulfonyl)methyl)cyclohexyl)-1H-pyrazole-5-carboxamide], for which the IC50 (in general, the concentration that inhibits the measured activity by half) was > 10 µM in experiment [1], > 10 µM in experiment [2] and 630 nM in experiment [3].

In the case of `O=C(N[C@H]1CC[C@@](F)(S(=O)(=O)c2cccc(OC(F)(F)F)c2)CC1)c1ccc(F)c(Cl)c1` [Compound 256, 3-chloro-4-fluoro-N-((1S,4S)-4-fluoro-4-(3-(trifluoromethoxy)phenylsulfonyl)cyclohexyl)benzamide], the IC50 in experiment [1] amounted to 2.01 µM; in experiment [2], 3.32 µM; in experiment [3], 150 nM.

Take `Cn1nc(C(F)(F)F)cc1C(=O)N[C@H]1CC[C@@](F)(S(=O)(=O)c2cccc(OC(F)(F)F)c2)CC1` [Compound 255, N-((1S,4S)-4-fluoro-4-(3-(trifluoromethoxy)phenylsulfonyl)cyclohexyl)-1-methyl-3-(trifluoromethyl)-1H-pyrazole-5-carboxamide]: the IC50 in experiment [1] is 2.01 µM; in experiment [2], 3.32 µM; in experiment [3] it was 210 nM.

Regarding `Cn1cc(C(=O)N[C@H]2CC[C@H](CS(=O)(=O)c3cccc(C(F)(F)F)c3)CC2)c(C(F)(F)F)n1` [Compound 106, 1-methyl-3-(trifluoromethyl)-N-((1R,4R)-4-((3-(trifluoromethyl)phenylsulfonyl)methyl)cyclohexyl)-1H-pyrazole-4-carboxamide], the figures for the half-maximal inhibitory concentration (IC50) in experiment [1], in experiment [2] and in experiment [3] were 2.18 µM, > 10 µM and 1940 nM, respectively.

Turning to “4-fluoro-N-(4-methyl-4-(3- (trifluoromethyl)phenylsulfonyl) cyclohexyl)-3-(trifluoromethyl) benzamide [Compound 4]”, the IC50 in experiment [1] came out at 8.54 µM; in experiment [2] it was 6.74 µM; in experiment [3], 140 nM.

As to `CS(=O)(=O)c1ccc(C(=O)N[C@H]2CC[C@@](F)(S(=O)(=O)c3cccc(C(F)(F)F)c3)CC2)c(Cl)c1` [Compound 263, 2-chloro-N-((1S,4S)-4-fluoro-4-(3-(trifluoromethyl)phenylsulfonyl)cyclohexyl)-4-(methylsulfonyl)benzamide], the IC50 stood at 2.23 µM in experiment [1], 1.36 µM in experiment [2] and 2510 nM in experiment [3].

With `CC(C)NC(=O)CN[C@H]1CC[C@@H](S(=O)(=O)c2cccc(C(F)(F)F)c2)CC1` [Compound 52, N-isopropyl-2-((1S,4S)-4-(3-(trifluoromethyl)phenylsulfonyl)cyclohexylamino)acetamide], the IC50 in experiment [1] amounted to 0.86 µM; in experiment [2] it was 0.79 µM; in experiment [3], 1540 nM.

With `COc1cc(C(=O)NCC2(C)CCC(F)(S(=O)(=O)c3cccc(C(F)(F)F)c3)CC2)cc(Cl)n1` (stereo not drawn) [Compound 158, 2-chloro-N-((4-fluoro-1-methyl-4-(3-(trifluoromethyl)phenylsulfonyl)cyclohexyl)methyl)-6-methoxyisonicotinamide], the IC50 is > 10 µM in experiment [1], 7.2 µM in experiment [2] and 480 nM in experiment [3].

As to `O=C(N[C@H]1CC[C@@H](S(=O)(=O)c2cccc(C(F)(F)F)c2)CC1)c1ccc(Cl)c(C(F)(F)F)c1` [Compound 132, 4-chloro-3-(trifluoromethyl)-N-((1S,4S)-4-(3-(trifluoromethyl)phenylsulfonyl)cyclohexyl)benzamide], the IC50 in experiment [1] stood at 3.67 µM; in experiment [2], 4.55 µM; in experiment [3], 1720 nM.

Turning to `O=C(Nc1cc(C(F)(F)F)ccn1)[C@H]1C[C@@H](S(=O)(=O)c2cccc(C(F)(F)F)c2)C1` [Compound 410, (1S,3S)-3-(3-(trifluoromethyl)phenylsulfonyl)-N-(4-(trifluoromethyl)pyridin-2-yl)cyclobutanecarboxamide], the results for the IC50 in experiment [1], in experiment [2] and in experiment [3] were 3.49 µM, 1.79 µM and 1240 nM, respectively.

Take “4-chloro-2-methoxy-N-((1S,4S)-4- ((3- (trifluoromethyl)phenylsulfonyl) methyl)cyclohexyl)benzamide [Compound 140]”: the IC50 was 1.1 µM in experiment [1], 0.7 µM in experiment [2] and 700 nM in experiment [3].

In the case of `O=C(NC1CCC(S(=O)(=O)c2cccc(C(F)(F)F)c2)CC1)c1ccn(CC(F)(F)F)n1` (stereo not drawn) [Compound 14, 1-(2,2,2-trifluoroethyl)-N-(4-(3-(trifluoromethyl)phenylsulfonyl)cyclohexyl)-1H-pyrazole-3-carboxamide], the IC50 came out at 1.32 µM in experiment [1], 0.33 µM in experiment [2] and 2210 nM in experiment [3].

Turning to `O=C(CNC1CCCCC1)N[C@H]1CC[C@H](CS(=O)(=O)c2cccc(C(F)(F)F)c2)CC1` [Compound 162, 2-(cyclohexylamino)-N-((1R,4R)-4-((3-(trifluoromethyl)phenylsulfonyl)methyl)cyclohexyl)acetamide], the IC50 was > 10 µM in experiment [1], > 10 µM in experiment [2] and 540 nM in experiment [3].

`O=C(N[C@H]1CC[C@@](F)(S(=O)(=O)c2cccc(C(F)(F)F)c2)CC1)[C@@H]1C[C@@H](Cc2ccc(F)cc2)CN1` [Compound 287, (2S,4R)-N-((1S,4R)-4-fluoro-4-(3-(trifluoromethyl)phenylsulfonyl)cyclohexyl)-4-(4-fluorobenzyl)pyrrolidine-2-carboxamide]: the IC50 in experiment [1] amounted to 6.5 µM; in experiment [2], 1.13 µM; in experiment [3], 310 nM.

Regarding `O=C(N[C@H]1CC[C@@](F)(S(=O)(=O)c2cc(F)cc(C(F)(F)F)c2)CC1)c1cc(C(F)(F)F)ccn1` [Compound 328, N-((1S,4S)-4-fluoro-4-(3-fluoro-5-(trifluoromethyl)phenylsulfonyl)cyclohexyl)-4-(trifluoromethyl)picolinamide], the values for the IC50 in experiment [1], in experiment [2] and in experiment [3] were > 10 µM, 2.47 µM and 710 nM, respectively.

Consider `O=C(NC[C@H]1C[C@H](S(=O)(=O)c2cccc(C(F)(F)F)c2)C1)c1ccnc(C(F)(F)F)c1` [Compound 361, 2-(trifluoromethyl)-N-(((1R,3R)-3-(3-(trifluoromethyl)phenylsulfonyl)cyclobutyl)methyl)isonicotinamide], for which the figures for the IC50 in experiment [1], in experiment [2] and in experiment [3] were 1.62 µM, 0.2 µM and 460 nM, respectively.

In the case of `O=C(NC[C@H]1C[C@H](S(=O)(=O)c2cccc(C(F)(F)F)c2)C1)c1ccc(OC(F)(F)F)cc1` [Compound 373, 4-(trifluoromethoxy)-N-(((1R,3R)-3-(3-(trifluoromethyl)phenylsulfonyl)cyclobutyl)methyl)benzamide], the IC50 in experiment [1] worked out at 0.82 µM; in experiment [2], 0.61 µM; in experiment [3] it was 250 nM.

Regarding `O=C(Nc1cc(C(F)(F)F)ccn1)[C@H]1C[C@H](S(=O)(=O)c2cccc(C(F)(F)F)c2)C1` [Compound 409, (1R,3R)-3-(3-(trifluoromethyl)phenylsulfonyl)-N-(4-(trifluoromethyl)pyridin-2-yl)cyclobutanecarboxamide], the IC50 worked out at 2.65 µM in experiment [1], 3.62 µM in experiment [2] and 1690 nM in experiment [3].

On to `O=C(N[C@H]1CC[C@@H](S(=O)(=O)c2cccc(C(F)(F)F)c2)CC1)c1ccc(OCC(F)(F)F)nc1` [Compound 197, 6-(2,2,2-trifluoroethoxy)-N-((1S,4S)-4-(3-(trifluoromethyl)phenylsulfonyl)cyclohexyl)nicotinamide], for which the IC50 is > 10 µM in experiment [1], 5.66 µM in experiment [2] and 470 nM in experiment [3].

In the case of `CS(=O)(=O)c1cc(C(F)(F)F)cnc1C(=O)N[C@H]1CC[C@@](F)(S(=O)(=O)c2cc(F)cc(C(F)(F)F)c2)CC1` [Compound 331, N-((1S,4S)-4-fluoro-4-(3-fluoro-5-(trifluoromethyl)phenylsulfonyl)cyclohexyl)-3-(methylsulfonyl)-5-(trifluoromethyl)picolinamide], the values for the IC50 in experiment [1], in experiment [2] and in experiment [3] were 2.65 µM, 1.51 µM and 1290 nM, respectively.

As to `Cc1nc(C(F)(F)F)ccc1NC(=O)[C@H]1C[C@H](S(=O)(=O)c2cccc(C(F)(F)F)c2)C1` [Compound 417, (1R,3R)-N-(2-methyl-6-(trifluoromethyl)pyridin-3-yl)-3-(3-(trifluoromethyl)phenylsulfonyl)cyclobutane carboxamide], the IC50 was > 10 µM in experiment [1], 4.69 µM in experiment [2] and 5440 nM in experiment [3].

Regarding `CS(=O)(=O)c1cc(C(F)(F)F)ccc1C(=O)N[C@H]1CC[C@@](F)(S(=O)(=O)c2cccc(OC(F)(F)F)c2)CC1` [Compound 254], the values for the IC50 in experiment [1], in experiment [2] and in experiment [3] were 0.74 µM, 0.26 µM and 370 nM, respectively.
